Results published in patent publication US11753445B2, “Therapeutic peptides” (COHBAR, INC., priority 2016, dated 2023).
Peptide text beside a SMILES is read from it.

Tested on: 3T3-L1 Adipocytes
Experiment: Free fatty acid levels in cultured mouse 3T3-L1 adipocytes, isoproterenol stimulated (Example 2)
Assay type: cell-based
Settings: test peptides 25 μM; isoproterenol 1 nM
How it was run: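 3T3-L1 cells differentiated 12–17 days into adipocytes, then exposed to test peptides at 25 μM final for 18–20 h, then 1 h, then 3 h with isoproterenol (1 nM) at 37 °C. Free fatty acids in the medium measured colorimetrically at 540 nm, corrected for untreated background and expressed relative to isoproterenol-only cells.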

Molecule | Free Fatty Acid Levels in 3T3-L1 Adipocytes Expressed as a Percent of Isoproterenol Control: Percent of Control Value
CC[C@H](C)[C@H](NC(=O)[C@H](Cc1ccc(O)cc1)NC(=O)CNC(=O)[C@H](CCC(=O)O)NC(=O)[C@H](CCC(=O)O)NC(=O)[C@H](CCC(N)=O)NC(=O)[C@H](Cc1c[nH]c2ccccc12)NC(=O)[C@H](CCCNC(=N)N)NC(=O)[C@@H](C)N)C(=O)N[C@@H](Cc1ccccc1)C(=O)N[C@@H](Cc1ccc(O)cc1)C(=O)N1CCC[C@H]1C(=O)N[C@@H](CCCNC(=N)N)C(=O)O [compound 232] (HELM PEPTIDE1{[dA].R.W.Q.E.E.G.Y.I.F.Y.P.R}$$$$V2.0) | 46.5%
CC[C@H](C)[C@H](NC(=O)[C@H](Cc1ccc(O)cc1)NC(=O)CNC(=O)[C@H](C)NC(=O)[C@H](CCC(=O)O)NC(=O)[C@H](CCC(N)=O)NC(=O)[C@H](Cc1c[nH]c2ccccc12)NC(=O)[C@H](CCCNC(=N)N)NC(=O)[C@@H](N)CCC(=O)O)C(=O)N[C@@H](Cc1ccccc1)C(=O)N[C@@H](Cc1ccc(O)cc1)C(=O)N1CCC[C@H]1C(=O)N[C@@H](CCCNC(=N)N)C(=O)N[C@@H](CCCCN)C(=O)N[C@@H](CC(C)C)C(=O)N[C@H](C)C(=O)O [compound 234] (HELM PEPTIDE1{E.R.W.Q.E.A.G.Y.I.F.Y.P.R.K.L.[dA]}$$$$V2.0) | 73.8%
CC[C@H](C)[C@H](NC(=O)[C@H](Cc1ccc(O)cc1)NC(=O)CNC(=O)[C@H](CCC(=O)O)NC(=O)[C@H](CCC(=O)O)NC(=O)[C@H](CCC(N)=O)NC(=O)[C@H](Cc1c[nH]c2ccccc12)NC(=O)[C@H](CCCNC(=N)N)NC(=O)[C@@H](C)N)C(=O)N[C@@H](C)C(=O)N[C@@H](Cc1ccc(O)cc1)C(=O)N1CCC[C@H]1C(=O)N[C@@H](CCCNC(=N)N)C(=O)N[C@@H](CCCCN)C(=O)N[C@@H](CC(C)C)C(=O)N[C@@H](C)C(=O)O [compound 236] (HELM PEPTIDE1{[dA].R.W.Q.E.E.G.Y.I.A.Y.P.R.K.L.A}$$$$V2.0) | 74.8%
CC[C@H](C)[C@H](NC(=O)[C@H](Cc1ccc(O)cc1)NC(=O)CNC(=O)[C@H](CCC(=O)O)NC(=O)[C@H](CCC(=O)O)NC(=O)[C@H](CCC(N)=O)NC(=O)[C@H](Cc1c[nH]c2ccccc12)NC(=O)[C@H](CCCNC(=N)N)NC(=O)[C@@H](C)N)C(=O)N[C@@H](C)C(=O)N[C@@H](Cc1ccc(O)cc1)C(=O)N1CCC[C@H]1C(=O)N[C@@H](CCCNC(=N)N)C(=O)N[C@@H](CCCCN)C(=O)N[C@@H](CC(C)C)C(=O)N[C@H](C)C(=O)O [compound 237] (HELM PEPTIDE1{[dA].R.W.Q.E.E.G.Y.I.A.Y.P.R.K.L.[dA]}$$$$V2.0) | 85.6%
CC[C@H](C)[C@H](NC(=O)[C@H](Cc1ccc(O)cc1)NC(=O)CNC(=O)[C@H](CCC(=O)O)NC(=O)[C@H](CCC(=O)O)NC(=O)[C@H](CCC(N)=O)NC(=O)[C@H](Cc1c[nH]c2ccccc12)NC(=O)[C@H](CCCNC(=N)N)NC(=O)[C@@H](C)N)C(=O)N[C@@H](C)C(=O)N[C@@H](Cc1ccc(O)cc1)C(=O)N1CCC[C@H]1C(=O)N[C@@H](CCCNC(=N)N)C(=O)O [compound 238] (HELM PEPTIDE1{[dA].R.W.Q.E.E.G.Y.I.A.Y.P.R}$$$$V2.0) | 52.9%
CC[C@H](C)[C@H](NC(=O)[C@H](Cc1ccc(O)cc1)NC(=O)CNC(=O)[C@H](C)NC(=O)[C@H](CCC(=O)O)NC(=O)[C@H](CCC(N)=O)NC(=O)[C@H](Cc1c[nH]c2ccccc12)NC(=O)[C@H](CCCNC(=N)N)NC(=O)[C@@H](N)CCC(=O)O)C(=O)N[C@@H](C)C(=O)N[C@@H](Cc1ccc(O)cc1)C(=O)N1CCC[C@H]1C(=O)N[C@@H](CCCNC(=N)N)C(=O)N[C@@H](CCCCN)C(=O)N[C@@H](CC(C)C)C(=O)N[C@H](C)C(=O)O [compound 240] (HELM PEPTIDE1{E.R.W.Q.E.A.G.Y.I.A.Y.P.R.K.L.[dA]}$$$$V2.0) | 48.6%
CC[C@H](C)[C@H](NC(=O)[C@H](Cc1ccc(O)cc1)NC(=O)CNC(=O)[C@H](C)NC(=O)[C@H](CCC(=O)O)NC(=O)[C@H](CCC(N)=O)NC(=O)[C@H](Cc1c[nH]c2ccccc12)NC(=O)[C@H](CCCNC(=N)N)NC(=O)[C@@H](C)N)C(=O)N[C@@H](Cc1ccccc1)C(=O)N[C@@H](CCC(=O)O)C(=O)N1CCC[C@H]1C(=O)N[C@@H](CCCNC(=N)N)C(=O)N[C@@H](CCCCN)C(=O)N[C@@H](CC(C)C)C(=O)N[C@@H](C)C(=O)O [compound 242] (HELM PEPTIDE1{[dA].R.W.Q.E.A.G.Y.I.F.E.P.R.K.L.A}$$$$V2.0) | 64.9%
CC[C@H](C)[C@H](NC(=O)[C@H](Cc1ccc(O)cc1)NC(=O)CNC(=O)[C@H](C)NC(=O)[C@H](CCC(=O)O)NC(=O)[C@H](CCC(N)=O)NC(=O)[C@H](Cc1c[nH]c2ccccc12)NC(=O)[C@H](CCCNC(=N)N)NC(=O)[C@@H](C)N)C(=O)N[C@@H](Cc1ccccc1)C(=O)N[C@@H](CCC(=O)O)C(=O)N1CCC[C@H]1C(=O)N[C@@H](CCCNC(=N)N)C(=O)N[C@@H](CCCCN)C(=O)N[C@@H](CC(C)C)C(=O)N[C@H](C)C(=O)O [compound 243] (HELM PEPTIDE1{[dA].R.W.Q.E.A.G.Y.I.F.E.P.R.K.L.[dA]}$$$$V2.0) | 82.3%
CC[C@H](C)[C@H](NC(=O)[C@H](Cc1ccc(O)cc1)NC(=O)CNC(=O)[C@H](C)NC(=O)[C@H](CCC(=O)O)NC(=O)[C@H](CCC(N)=O)NC(=O)[C@H](Cc1c[nH]c2ccccc12)NC(=O)[C@H](CCCNC(=N)N)NC(=O)[C@@H](C)N)C(=O)N[C@@H](Cc1ccccc1)C(=O)N[C@@H](CCC(=O)O)C(=O)N1CCC[C@H]1C(=O)N[C@@H](CCCNC(=N)N)C(=O)O [compound 244] (HELM PEPTIDE1{[dA].R.W.Q.E.A.G.Y.I.F.E.P.R}$$$$V2.0) | 90.3%
CC[C@H](C)[C@H](NC(=O)[C@H](Cc1ccc(O)cc1)NC(=O)CNC(=O)[C@H](C)NC(=O)[C@H](CCC(=O)O)NC(=O)[C@H](CCC(N)=O)NC(=O)[C@H](Cc1c[nH]c2ccccc12)NC(=O)[C@H](CCCNC(=N)N)NC(=O)[C@@H](C)N)C(=O)N[C@@H](C)C(=O)N[C@@H](CCC(=O)O)C(=O)N1CCC[C@H]1C(=O)N[C@@H](CCCNC(=N)N)C(=O)N[C@@H](CCCCN)C(=O)N[C@@H](CC(C)C)C(=O)N[C@@H](C)C(=O)O [compound 245] (HELM PEPTIDE1{[dA].R.W.Q.E.A.G.Y.I.A.E.P.R.K.L.A}$$$$V2.0) | 78.1%
CC[C@H](C)[C@H](NC(=O)[C@H](Cc1ccc(O)cc1)NC(=O)CNC(=O)[C@H](C)NC(=O)[C@H](CCC(=O)O)NC(=O)[C@H](CCC(N)=O)NC(=O)[C@H](Cc1c[nH]c2ccccc12)NC(=O)[C@H](CCCNC(=N)N)NC(=O)[C@@H](C)N)C(=O)N[C@@H](C)C(=O)N[C@@H](CCC(=O)O)C(=O)N1CCC[C@H]1C(=O)N[C@@H](CCCNC(=N)N)C(=O)N[C@@H](CCCCN)C(=O)N[C@@H](CC(C)C)C(=O)N[C@H](C)C(=O)O [compound 246] (HELM PEPTIDE1{[dA].R.W.Q.E.A.G.Y.I.A.E.P.R.K.L.[dA]}$$$$V2.0) | 73.9%
Ac-ARWQEMGYIFYPRKLR-NH2 [compound 22] | 78.7%
Ac-ERWQEMGYIFYPRKLR-NH2 [compound 183] | 81.6%
Ac-LKWQEMGYIFYPLRKR-NH2 [compound 113] | 82.8%
Ac-LKWQEMGYIFYPRKLR-NH2 [compound 112] | 90.5%
Ac-LKWQEMGYIFYPRKR-NH2 [compound 117] | 97.7%
Ac-LKWQEMGYIFYPRKRL-NH2 [compound 115] | 83.4%

Molecule | Free Fatty Acid Levels in 3T3-L1 Adipocytes Expressed as a Percent of Isoproterenol Control: Percent of Control Value
Ac-LKWQEMGYIFYPRLKR-NH2 [compound 114] | 78.4%
Ac-LRWQEMGYIFYPLRKR-NH2 [compound 109] | 76.6%
Ac-LRWQEMGYIFYPRKLR-NH2 [compound 108] | 101.3%
Ac-LRWQEMGYIFYPRKR-NH2 [compound 116] | 101.8%
Ac-LRWQEMGYIFYPRKRL-NH2 [compound 111] | 106.0%
Ac-LRWQEMGYIFYPRLKR-NH2 [compound 110] | 82.6%
Ac-MAWQEMGYIFYPRKLR-NH2 [compound 23] | 74.7%
Ac-MEWQEMGYIFYPRKLR-NH2 [compound 184] | 97.1%
Ac-MKWQEMGYIFYPRKLR-NH2 [compound 128] | 90.0%
Ac-MREQEMGYIFYPRKLR-NH2 [compound 185] | 77.0%
Ac-MRWAEMGYIFYPRKLR-NH2 [compound 25] | 27.8%
Ac-MRWEEMGYIFYPRKLR-NH2 [compound 186] | 102.1%
Ac-MRWNEMGYIFYPRKLR-NH2 [compound 133] | 87.5%
Ac-MRWQDMGYIFYPRRLR-NH2 [compound 132] | 102.6%
Ac-MRWQEEGYIFYPRKLR-NH2 [compound 187] | 98.9%
Ac-MRWQEMAYIFYPRKLR-NH2 [compound 28] | 35.5%
